# Laboratory results taken from patent publication US12162867B2, “Inhibitors of RNA helicase DHX9 and uses thereof” (ACCENT THERAPEUTICS, INC., priority 2022, dated 2024).
# Read-outs that look alike come from different tables or passages of the source.
# Columns and labels:
# Format in all cases: cell-based
# NCI-H747 cells = assay: DHX9 cellular proliferation assay (CellTiter-Glo), NCI-H747 (CRC-MSS); details: Homo sapiens
# [1] = system: circBRIP1 in HCT116 cells; assay: DHX9 circBRIP1 cellular target engagement SYBR Green assay (qPCR); details: Homo sapiens, HCT-116, circBRIP1, HCT116 cells, read-out: DHX9 Cellular Target Engagement EC50
# LS411N cells = assay: DHX9 cellular proliferation assay (CellTiter-Glo), LS411N (CRC-MSI); details: Homo sapiens, LS-411N, read-out: LS411N (CRC-MSI-H) Antiproliferative IC50
# [2] = system: circBRIP1 in HCT116 cells; assay: DHX9 circBRIP1 cellular target engagement TaqMan Multiplex assay (qPCR); details: Homo sapiens, HCT-116, circBRIP1, HCT116 cells; * Taqman assay was used; read-out: DHX9 Cellular Target Engagement EC50
# [3] = NCI-H747, NCI-H747, CRC-MSS, performed at Pharmaron, read-out: H747 (CRC-MSS) Antiproliferative IC50
# [4] = LS411N, CRC-MSI-H, performed at Pharmaron
# [5] = NCI-H747, NCI-H747, performed at Pharmaron, read-out: H747 (CRC-MSS) Antiproliferative IC50
# [6] = NCI-H747, read-out: H747 (CRC-MSS) Antiproliferative IC50
Compound,IC50 (NCI-H747 cells; [3]),EC50 ([1]; SyBr assay (marked ^+)),IC50 (LS411N cells; [4]),further results
Cc1sc(C(=O)Nc2cc(Cl)cc(NS(C)(=O)=O)c2)cc1-c1ncc(F)cn1 [Example 336],> 10000 nM,84.6 nM,146 nM,–
CS(=O)(=O)Nc1cc(Cl)cc(NC(=O)c2cnn(-c3ccccc3OCc3cccc(F)c3)c2)c1 [Example 210],> 10000 nM,77.2 nM,111 nM,–
Cn1cc(C(=O)Nc2cc(Cl)cc(NS(C)(=O)=O)c2)cc1-c1ncc(N2CCCC2)cn1 [Example 520],–,–,–,"IC50 (NCI-H747 cells; [5]): > 10000 nM; EC50 ([1]; ^+ SyBr assay was used): 40.2 nM; IC50 (LS411N cells; LS411N, performed at Pharmaron): 118 nM"
CS(=O)(=O)Nc1cc(Br)cc(NC(=O)c2cnn(-c3cc(C#N)ccc3OCc3ccccc3)c2)c1 [Example 67],> 10000 nM,297 nM,1050 nM,–
CS(=O)(=O)Nc1cc(Cl)cc(NC(=O)c2cc(-c3ncccc3OCc3ccccc3)c(CO)s2)c1 [Example 216],> 10000 nM,12.7 nM,38.5 nM,–
"CS(=O)(=O)Nc1cc(Br)cc(NC(=O)c2cc(-c3ccccn3)n(CC#N)c2)c1 [Example 95, N-(3-bromo-5-methanesulfonamidophenyl)-1-(cyanomethyl)-5-(pyridin-2-yl)-1H-pyrrole-3-carboxamide]",–,179 nM,–,IC50 (NCI-H747 cells; [6]): 7990 nM; IC50 (LS411N cells): 1020 nM
"CS(=O)(=O)Nc1cc(Cl)cc(NC(=O)c2cc(-c3ncccc3Oc3ncccn3)cs2)c1 [Example 178, N-(3-chloro-5-(methylsulfonamido)phenyl)-4-(3-(pyrimidin-2-yloxy)pyridin-2-yl)thiophene-2-carboxamide]",> 10000 nM,101 nM,81.1 nM,–
CS(=O)(=O)Nc1cc(Cl)cc(NC(=O)c2cnn(-c3ncccc3OCc3cccc(Cl)c3)c2)c1 [Example 70],> 10000 nM,107 nM,375 nM,–
COc1cnc(-n2cc(C(=O)Nc3cc(Cl)cc(NS(C)(=O)=O)c3)cc2C)nc1 [Example 441],–,–,–,"IC50 (NCI-H747 cells; [5]): > 10000 nM; EC50 ([1]; ^+ SyBr assay was used): 123 nM; IC50 (LS411N cells; LS411N, performed at Pharmaron): 130 nM"
Cn1cc(C(=O)Nc2cc(Cl)cc(NS(C)(=O)=O)c2)cc1-c1ncccc1OCC1CC1 [Example 584],–,–,–,"IC50 (NCI-H747 cells; [5]): > 10000 nM; EC50 ([1]; ^+ SyBr assay was used): 42.1 nM; IC50 (LS411N cells; LS411N, performed at Pharmaron): 122 nM"
Cc1cccc(OCc2cccc(F)c2)c1-n1cc(C(=O)Nc2cc(Cl)cc(NS(C)(=O)=O)c2)cn1 [Example 255],> 10000 nM,378 nM,74.3 nM,–
Cc1cccnc1-c1csc(C(=O)Nc2cc(Br)cc(NS(C)(=O)=O)c2)c1 [Example 33],> 10000 nM,21.5 nM,116 nM,–
Cc1cc(C(=O)Nc2cc(Cl)cc(NS(C)(=O)=O)c2)cn1-c1ccc(N2CCCC2=O)cn1 [Example 410],–,–,–,"IC50 (NCI-H747 cells; [5]): > 10000 nM; EC50 ([1]; ^+ SyBr assay was used): 21.2 nM; IC50 (LS411N cells; LS411N, performed at Pharmaron): 373 nM"
Cc1cc(C(=O)Nc2cc(Cl)cc(NS(C)(=O)=O)c2)cn1-c1ccc(N2CC(F)(F)C2)cn1 [Example 399],–,–,–,"IC50 (NCI-H747 cells; [5]): 8890 nM; EC50 ([1]; ^+ SyBr assay was used): 34.4 nM; IC50 (LS411N cells; LS411N, performed at Pharmaron): 95.2 nM"
COc1ccc(-n2cc(C(=O)Nc3cc(Cl)cc(NS(C)(=O)=O)c3)cc2C)nc1 [Example 391],> 10000 nM,63 nM,171 nM,–
Cc1cc(C(=O)Nc2cc(Cl)cc(NS(C)(=O)=O)c2)cn1-c1ccc(N2CC(F)C2)cn1 [Example 395],–,–,–,"IC50 (NCI-H747 cells; [5]): 9220 nM; EC50 ([1]; ^+ SyBr assay was used): 23.8 nM; IC50 (LS411N cells; LS411N, performed at Pharmaron): 117 nM"
Cc1sc(C(=O)Nc2cc(Cl)cc(NS(C)(=O)=O)c2)cc1-c1ccc(F)cn1 [Example 35],> 10000 nM,37.2 nM,76.8 nM,–
Cc1cc(C(=O)Nc2cc(Cl)cc(NS(C)(=O)=O)c2)cn1-c1ncc(N2CCC2)cn1 [Example 398],–,–,–,"IC50 (NCI-H747 cells; [5]): > 10000 nM; EC50 ([1]; ^+ SyBr assay was used): 41.1 nM; IC50 (LS411N cells; LS411N, performed at Pharmaron): 116 nM"
Cc1cc(C(=O)Nc2cc(Cl)cc(NS(C)(=O)=O)c2)cn1-c1ccc(N2CC3(COC3)C2)cn1 [Example 276],> 10000 nM,64.2 nM,61.7 nM,–
"Cc1cccnc1-c1cc(C(=O)Nc2cc(Br)cc(NS(C)(=O)=O)c2)cn1C [Example 84, N-(3-bromo-5-(methylsulfonamido)phenyl)-1-methyl-5-(3-methylpyridin-2-yl)-1H-pyrrole-3-carboxamide]",–,194 nM,–,IC50 (NCI-H747 cells; [6]): > 10000 nM; IC50 (LS411N cells): 385 nM
Cc1ccc(-n2cc(C(=O)Nc3cc(Br)cc(NS(C)(=O)=O)c3)cn2)nc1 [Example 42],> 10000 nM,308 nM,917 nM,–
Cc1cc(C(=O)Nc2cc(Cl)cc(NS(C)(=O)=O)c2)cn1-c1ccc(N2CC3CC3C2)cn1 (centres unmarked) [Example 411],–,–,–,"IC50 (NCI-H747 cells; [5]): > 10000 nM; EC50 ([1]; ^+ SyBr assay was used): 74.1 nM; IC50 (LS411N cells; LS411N, performed at Pharmaron): 142 nM"
Cn1cc(C(=O)Nc2cc(Cl)cc(NS(C)(=O)=O)c2)cc1-c1ccc(N2CCC2)cn1 [Example 538],–,–,–,"IC50 (NCI-H747 cells; [5]): 3620 nM; EC50 ([1]; ^+ SyBr assay was used): 57.4 nM; IC50 (LS411N cells; LS411N, performed at Pharmaron): 124 nM"
Cc1sc(C(=O)Nc2cc(Cl)cc(NS(C)(=O)=O)c2)cc1-c1ncccc1OCc1ccccc1 [Example 34],8670 nM,13 nM,14.1 nM,–

Compound,IC50 (NCI-H747 cells; [3]),EC50 ([1]; SyBr assay (marked ^+)),IC50 (LS411N cells; [4]),further results
CS(=O)(=O)Nc1cc(Cl)cc(NC(=O)c2cc(-c3ccccc3OCc3ccccc3)cs2)c1 [Example 111],> 10000 nM,161 nM,318 nM,–
Cn1cc(C(=O)Nc2cc(Cl)cc(NS(C)(=O)=O)c2)cc1-c1ncccn1 [Example 82],> 10000 nM,73.2 nM,134 nM,–
Cc1cc(C(=O)Nc2cc(Cl)cc(NS(C)(=O)=O)c2)cn1-c1ccc(N2CCC(F)(F)C2)cn1 [Example 396],–,–,–,"IC50 (NCI-H747 cells; [5]): > 10000 nM; EC50 ([1]; ^+ SyBr assay was used): 33 nM; IC50 (LS411N cells; LS411N, performed at Pharmaron): 122 nM"
CS(=O)(=O)Nc1cc(Br)cc(NC(=O)c2cc(-c3ncccc3OCc3ccccc3)cs2)c1 [Example 32],> 10000 nM,48.2 nM,101 nM,–
CCOc1cnc(-c2cc(C(=O)Nc3cc(Cl)cc(NS(C)(=O)=O)c3)sc2C)nc1 [Example 335],> 10000 nM,51.1 nM,52.6 nM,–
Cc1cccnc1-n1cc(C(=O)Nc2cc(Br)cc(NS(C)(=O)=O)c2)cn1 [Example 49],> 10000 nM,434 nM,901 nM,–
CS(=O)(=O)Nc1cc(Cl)cc(NC(=O)c2cc(-c3ncccc3COc3cc(F)cc(F)c3)cs2)c1 [Example 228],> 10000 nM,48.3 nM,117 nM,–
Cc1sc(C(=O)Nc2cc(Cl)cc(NS(C)(=O)=O)c2)cc1-c1ncc(OC(F)F)cn1 [Example 345],8450 nM,108 nM,362 nM,–
Cc1sc(C(=O)Nc2cc(Br)cc(NS(C)(=O)=O)c2)cc1-c1ccccc1O [Example 20],7220 nM,100 nM,609 nM,–
COc1cnc(-c2csc(C(=O)Nc3cc(Cl)cc(NS(C)(=O)=O)c3)c2)nc1 [Example 340],> 10000 nM,106 nM,118 nM,–
Cc1cccc(O)c1-c1csc(C(=O)Nc2cc(Br)cc(NS(C)(=O)=O)c2)c1 [Example 19],> 10000 nM,2110 nM,1080 nM,–
Cn1cc(C(=O)Nc2cc(Cl)cc(NS(C)(=O)=O)c2)cc1-c1ncc(N2CCC2)cn1 [Example 521],–,–,–,"IC50 (NCI-H747 cells; [5]): > 10000 nM; EC50 ([1]; ^+ SyBr assay was used): 35.1 nM; IC50 (LS411N cells; LS411N, performed at Pharmaron): 69 nM"
CNC(=O)c1sc(C(=O)Nc2cc(Cl)cc(NS(C)(=O)=O)c2)cc1-c1ncccc1OCc1ccccc1 [Example 212],> 10000 nM,32.6 nM,202 nM,–
Cc1cccnc1-n1cc(C(=O)Nc2cc(Cl)cc(NS(C)(=O)=O)c2)cc1C [Example 130],> 10000 nM,489 nM,1160 nM,–
CS(=O)(=O)Nc1cc(Cl)cc(NC(=O)c2cc(-c3ncccc3Nc3ncccn3)cs2)c1 [Example 237],3780 nM,1910 nM,249 nM,–
"Cc1sc(C(=O)Nc2cc(Cl)cc(NS(C)(=O)=O)c2)cc1-c1ncc(N2CC(C(F)(F)F)C2)cc1F [Example 460, N-(3-chloro-5-(methylsulfonamido)phenyl)-4-(3-fluoro-5-(3-(trifluoromethyl)azetidin-1-yl)pyridin-2-yl)-5-methylthiophene-2-carboxamide]",–,–,–,IC50 (NCI-H747 cells; [5]): 3800 nM
"CC(Oc1cccnc1-c1cc(C(=O)Nc2cc(Cl)cc(NS(C)(=O)=O)c2)cn1C)c1cc(F)cc(C(F)(F)F)c1 (single isomer, unassigned) [Example 629, N-(3-chloro-5-methanesulfonamidophenyl)-5-{3-[1-[3-fluoro-5-(trifluoromethyl)phenyl]ethoxy]pyridin-2-yl}-1-methyl-1H-pyrrole-3-carboxamide]",–,–,–,"IC50 (NCI-H747 cells; [5]): > 10000 nM; IC50 (LS411N cells; LS411N, performed at Pharmaron): 69.2 nM"
CS(=O)(=O)Nc1cc(Cl)cc(NC(=O)c2cnn(-c3ncccc3OCc3cc(F)cc(F)c3)c2)c1 [Example 187],> 10000 nM,–,77.3 nM,–
Cc1sc(C(=O)Nc2cc(Cl)cc(NS(C)(=O)=O)c2)cc1-c1ncccc1OC(C)c1cncc(F)c1 (centres unmarked) [Example 630],–,–,–,"EC50 [2]: 89.2 nM; IC50 (LS411N cells; LS411N, performed at Pharmaron): 98.3 nM"
Cc1cc(C(=O)Nc2cc(Cl)cc(NS(C)(=O)=O)c2)cn1-c1ncc(N2CC(F)(F)C2)cc1C(F)(F)F [Example 407],–,–,–,EC50 [2]: 517 nM
CCS(=O)(=O)Nc1cc(Cl)cc(NC(=O)c2cc(-c3ncc(C(F)(F)F)cc3C)c(C)s2)c1 [Example 700],–,–,–,EC50 [2]: 871 nM
Cn1cc(C(=O)Nc2cc(Cl)cc(NS(C)(=O)=O)c2)cc1-c1ccc(N2CC(S(C)(=O)=O)C2)cn1 [Example 519],–,–,–,EC50 [2]: 191 nM
Cc1cc(F)cnc1-c1cc(C(=O)Nc2cc(Cl)cc(NS(C)(=O)=O)c2)cn1C [Example 545],–,–,–,EC50 [2]: 192 nM
